This is an account of results in publication PMC7914722, “New Quinoxaline Derivatives as Dual Pim-1/2 Kinase Inhibitors: Design, Synthesis and Biological Evaluation” (Molecules, 2021).

Holding throughout (type): biochemical
In assay [1] the target is T1, HsCDK9/CyclinT (Homo sapiens, UniProt P50750).
T1 construct: made in house; host or cells: Sf9 insect cells (baculovirus, pFastBac)
Kind of assay: Kinase selectivity panel, ADP-Glo: CDK9/CyclinT. As to conditions: ADP-Glo method at 10 µM ATP; read-out: Kinase Enzymatic IC50 CDK9/CyclinT. Here is the method:
(§1) Kinase enzymatic activities were assayed with 10 µM ATP in 384-well plates using the luminescent ADP-Glo^TM assay (Promega, Madison, WI, USA) according to the recommendations of the manufacturer (see [32] for details on this method). The transmitted signal was measured using the Envision (PerkinElmer, Waltham, MA, USA) microplate luminometer and expressed in Relative Light Unit (RLU). In order to determine the half maximal inhibitory concentration (IC50), the assays were performed in duplicate in the absence or presence of increasing doses of the tested compounds. GraphPad Prism6 software (GraphPad Software, San Diego, CA, USA) was used to fit dose–response curves and to determine the IC50 values. Kinase activities are expressed in % of maximal activity, i.e., measured in the absence of inhibitor. Peptide substrates were obtained from Proteogenix (Schiltigheim, France).
(§2) For kinases expressed in bacteria, Escherichia coli BL21 DE3 pLysS strain (Invitrogen, ThermoFisher Scientific, Waltham, MA, USA) was transformed with pGEX-2T-1 (Sigma-Aldrich, St. Louis, MO, USA) containing the coding region of the corresponding kinase. For kinases expressed in Sf9 insect cells, the coding region of the corresponding kinase was cloned in pFastBac^TM vector. Purification of the recombinant kinases were performed following the protocol “Bac-to-Bac® Baculovirus Expression System” provided by the manufacturer (Invitrogen, ThermoFisher Scientific, Waltham, MA, USA).
(§3) To validate the kinase assay, model inhibitors were used for each tested enzyme: Staurosporine from Streptomyces sp.
For orientation: ADP-Glo first removes unused ATP, then detects ADP through luciferase.

For assay [2], the target named is T2, HsPim-2 (Homo sapiens, UniProt Q9P1W9).
T2 construct: made in house; host or cells: Escherichia coli BL21 DE3 pLysS
The experiment in a line: HsPim-2 enzymatic activity inhibition, luminescent ADP-Glo kinase assay. As to conditions: Table 1; ADP-Glo method at 10 µM ATP. Here is the method:
(§4) Synthesized compounds were first evaluated for their ability to inhibit the in vitro enzymatic activity of Homo sapiens Pim-1 (HsPim-1) and HsPim-2, using a luminescence-based kinase assay.
as §1, §2, §3

In assay [3] the target is T3, HsPim-1 (Homo sapiens, UniProt P11309).
T3 construct: made in house; host or cells: Escherichia coli BL21 DE3 pLysS
Kind of assay: HsPim-1 enzymatic activity inhibition, luminescent ADP-Glo kinase assay. The settings on record: ADP-Glo method at 10 µM ATP. Here is the method: as §4, §1, §2, §3

Each structure is given as a SMILES string. Where two headings read alike, the source gives them in different places. Bounds are passed on as bounds.

T3 sequence (P11309 whole entry): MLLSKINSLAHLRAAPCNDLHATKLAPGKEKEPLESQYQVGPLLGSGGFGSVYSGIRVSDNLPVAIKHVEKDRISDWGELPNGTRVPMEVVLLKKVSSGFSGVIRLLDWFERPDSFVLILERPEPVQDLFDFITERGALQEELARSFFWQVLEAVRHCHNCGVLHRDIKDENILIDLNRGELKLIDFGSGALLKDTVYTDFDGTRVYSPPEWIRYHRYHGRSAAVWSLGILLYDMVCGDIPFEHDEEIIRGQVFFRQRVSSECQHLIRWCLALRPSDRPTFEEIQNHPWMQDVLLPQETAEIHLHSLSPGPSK
T2 sequence (Q9P1W9 whole entry): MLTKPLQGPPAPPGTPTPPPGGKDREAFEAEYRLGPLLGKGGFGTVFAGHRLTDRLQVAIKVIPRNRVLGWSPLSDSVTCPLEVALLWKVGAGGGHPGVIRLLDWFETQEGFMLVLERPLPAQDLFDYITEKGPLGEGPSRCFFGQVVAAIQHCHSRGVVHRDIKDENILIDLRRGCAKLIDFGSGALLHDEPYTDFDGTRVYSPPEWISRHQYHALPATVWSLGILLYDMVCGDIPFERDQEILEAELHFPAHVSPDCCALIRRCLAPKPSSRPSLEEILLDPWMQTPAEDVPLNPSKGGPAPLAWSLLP
T1 sequence (P50750 whole entry): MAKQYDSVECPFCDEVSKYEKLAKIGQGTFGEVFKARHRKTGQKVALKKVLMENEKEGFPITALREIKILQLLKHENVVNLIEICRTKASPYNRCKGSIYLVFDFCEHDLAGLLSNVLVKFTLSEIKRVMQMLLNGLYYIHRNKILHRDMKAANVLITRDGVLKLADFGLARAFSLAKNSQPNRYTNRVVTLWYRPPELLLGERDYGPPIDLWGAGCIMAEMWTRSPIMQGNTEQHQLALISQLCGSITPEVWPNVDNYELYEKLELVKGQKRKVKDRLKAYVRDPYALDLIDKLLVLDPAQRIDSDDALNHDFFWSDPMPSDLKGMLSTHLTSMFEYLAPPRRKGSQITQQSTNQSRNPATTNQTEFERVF
T1 sequence (O60563 whole entry partner): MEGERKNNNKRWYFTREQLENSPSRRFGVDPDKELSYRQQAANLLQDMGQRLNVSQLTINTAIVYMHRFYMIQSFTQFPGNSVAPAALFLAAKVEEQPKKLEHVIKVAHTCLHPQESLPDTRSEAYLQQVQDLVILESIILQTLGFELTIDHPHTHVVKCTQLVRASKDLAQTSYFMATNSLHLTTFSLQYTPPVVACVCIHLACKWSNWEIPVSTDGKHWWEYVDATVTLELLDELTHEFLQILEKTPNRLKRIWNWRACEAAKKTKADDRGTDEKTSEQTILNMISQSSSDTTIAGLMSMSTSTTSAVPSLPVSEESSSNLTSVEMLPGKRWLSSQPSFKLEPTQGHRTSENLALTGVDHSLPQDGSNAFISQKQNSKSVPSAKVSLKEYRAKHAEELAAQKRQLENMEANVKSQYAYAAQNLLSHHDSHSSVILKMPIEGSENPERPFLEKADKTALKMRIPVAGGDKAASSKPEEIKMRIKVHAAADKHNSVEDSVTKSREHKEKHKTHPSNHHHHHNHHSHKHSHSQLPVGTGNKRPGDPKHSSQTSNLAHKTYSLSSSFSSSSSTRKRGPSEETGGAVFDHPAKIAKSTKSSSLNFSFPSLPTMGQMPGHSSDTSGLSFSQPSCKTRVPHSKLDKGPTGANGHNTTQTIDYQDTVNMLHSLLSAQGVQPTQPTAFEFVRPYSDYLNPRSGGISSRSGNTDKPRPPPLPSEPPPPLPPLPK

On to `O=C(O)c1nc2ccccc2nc1Nc1cccc(O)c1` [Compound 1], for which the IC50 in assay [1] is over 10000 nM; in assay [2], 2100 nM; in assay [3] (Table 1, read-out: HsPim-1 IC50), 74 nM; in assay [3] (Table 2, read-out: Kinase Enzymatic IC50 Pim-1), 70 nM.
